Source: patent publication US11192891B2, “Diazaspiro ROCK inhibitors” (BRISTOL-MYERS SQUIBB COMPANY, priority 2017, dated 2021)

target: ROCK2 (Homo sapiens, UniProt O75116); assay: ROCK kinase inhibition assay, FITC peptide substrate, LABCHIP 3000 readout; type: biochemical; details: 5 μM ATP, 1.5 μM peptide substrate
Procedure, shortened: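 Tested across a concentration range, with percent inhibition of kinase activity derived per concentration. Peptide phosphorylation, initiated by adding the Rho kinase variant (final DMSO <2%), was quenched with EDTA and substrate/product resolved by mobility shift.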

Sequence of ROCK2 (O75116 whole entry, species assumed): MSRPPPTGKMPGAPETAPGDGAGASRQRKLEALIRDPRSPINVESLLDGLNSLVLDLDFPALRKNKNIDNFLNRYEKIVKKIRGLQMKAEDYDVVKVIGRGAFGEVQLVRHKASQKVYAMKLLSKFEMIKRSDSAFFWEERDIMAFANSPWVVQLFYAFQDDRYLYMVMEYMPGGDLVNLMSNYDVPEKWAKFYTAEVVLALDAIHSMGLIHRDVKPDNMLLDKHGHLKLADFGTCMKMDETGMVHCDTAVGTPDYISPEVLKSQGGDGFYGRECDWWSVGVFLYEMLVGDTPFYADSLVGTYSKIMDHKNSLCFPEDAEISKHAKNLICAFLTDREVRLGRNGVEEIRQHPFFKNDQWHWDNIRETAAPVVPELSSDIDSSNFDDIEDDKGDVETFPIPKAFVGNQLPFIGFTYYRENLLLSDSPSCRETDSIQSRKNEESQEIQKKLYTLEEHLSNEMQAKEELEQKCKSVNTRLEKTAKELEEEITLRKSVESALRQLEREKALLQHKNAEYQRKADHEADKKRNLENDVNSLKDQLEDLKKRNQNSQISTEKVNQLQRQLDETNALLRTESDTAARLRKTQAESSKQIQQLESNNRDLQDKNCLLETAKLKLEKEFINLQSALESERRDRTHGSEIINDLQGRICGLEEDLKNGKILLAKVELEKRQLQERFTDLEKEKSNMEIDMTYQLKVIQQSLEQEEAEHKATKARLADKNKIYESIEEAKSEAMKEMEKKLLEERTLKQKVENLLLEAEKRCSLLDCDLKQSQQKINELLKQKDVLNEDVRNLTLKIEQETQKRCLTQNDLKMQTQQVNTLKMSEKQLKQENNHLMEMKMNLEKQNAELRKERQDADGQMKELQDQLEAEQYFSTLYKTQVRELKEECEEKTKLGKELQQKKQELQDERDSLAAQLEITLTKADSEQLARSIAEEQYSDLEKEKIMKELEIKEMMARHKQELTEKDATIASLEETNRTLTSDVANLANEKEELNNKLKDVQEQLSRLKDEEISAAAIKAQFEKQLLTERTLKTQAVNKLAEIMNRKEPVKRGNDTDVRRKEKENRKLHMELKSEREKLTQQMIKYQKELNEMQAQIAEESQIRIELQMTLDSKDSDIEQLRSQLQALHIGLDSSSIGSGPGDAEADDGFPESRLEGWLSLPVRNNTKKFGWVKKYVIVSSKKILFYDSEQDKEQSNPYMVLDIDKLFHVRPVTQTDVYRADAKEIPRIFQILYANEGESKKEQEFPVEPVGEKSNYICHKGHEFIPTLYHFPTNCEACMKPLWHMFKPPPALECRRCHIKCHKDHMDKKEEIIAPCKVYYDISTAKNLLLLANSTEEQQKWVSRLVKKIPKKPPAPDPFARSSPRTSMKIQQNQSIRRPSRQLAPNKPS

| IC50 [nM] | SMILES |
| --- | --- |
| 1430 | COc1cc(N2CCC3(CCN(C(=O)c4ccc(C(=O)O)cc4)CC3)C2=O)ccc1-c1cn[nH]c1 [Example 25, 4-{2-[3-methoxy-4-(1H-pyrazol-4-yl)phenyl]-1-oxo-2,8-diazaspiro[4.5]decane-8-carbonyl}benzoic acid] |
| 27 | COc1cc(N2CCC3(CCN(C(=O)c4ccc(-c5nnc(C)o5)cc4)CC3)C2=O)ccc1-c1cn[nH]c1 [Example 162, 2-[3-methoxy-4-(1H-pyrazol-4-yl)phenyl]-8-[4-(5-methyl-1,3,4-oxadiazol-2-yl)benzoyl]-2,8-diazaspiro[4.5]decan-1-one] |
| 2560 | COc1ccccc1C(=O)N1CCC2(CCN(c3ccc(-c4cn[nH]c4)cc3)C2=O)C1 (stereo not shown) [Example 43, 7-(2-methoxybenzoyl)-2-[4-(1H-pyrazol-4-yl)phenyl]-2,7-diazaspiro[4.4]nonan-1-one] |
| 54 | COc1ccccc1C(=O)N1CCC2(CC1)CCN(c1ccc(-c3cn[nH]c3)c(OC)c1)C2=O [Example 12, 2-[3-methoxy-4-(1H-pyrazol-4-yl)phenyl]-8-(2-methoxybenzoyl)-2,8-diazaspiro[4.5]decan-1-one] |
| 2.1 | COc1cc(N2CCC3(CCN(C(=O)c4cc(C(C)C)n5ncnc(O)c45)CC3)C2=O)ccc1-c1cn[nH]c1 [Example 200, 8-[4-hydroxy-7-(propan-2-yl)pyrrolo[2,1-f][1,2,4]triazine-5-carbonyl]-2-[3-methoxy-4-(1H-pyrazol-4-yl)phenyl]-2,8-diazaspiro[4.5]decan-1-one] |
| 7.1 | COc1cc(N2CCC3(CCN(C(=O)c4ccc(N5CCCOC5=O)cc4)CC3)C2=O)ccc1-c1cn[nH]c1 [Example 137, 2-[3-methoxy-4-(1H-pyrazol-4-yl)phenyl]-8-[4-(2-oxo-1,3-oxazinan-3-yl)benzoyl]-2,8-diazaspiro[4.5]decan-1-one] |
| 4 | COc1cc(N2CCC3(CCN(C(=O)c4ccc(N5CCCC5)cc4)CC3)C2=O)ccc1-c1cn[nH]c1 [Example 191] |
| 16 | COc1cc(N2CCC3(CCN(C(=O)c4ccc5nc(-c6ccncc6)[nH]c5c4)CC3)C2=O)ccc1-c1cn[nH]c1 [Example 182, 2-[3-methoxy-4-(1H-pyrazol-4-yl)phenyl]-8-[2-(pyridin-4-yl)-1H-1,3-benzodiazole-6-carbonyl]-2,8-diazaspiro[4.5]decan-1-one] |
| 13 | COc1ccc(C(=O)N2CCC3(CC2)CCN(c2ccc(-c4cn[nH]c4)c(OC)c2)C3=O)nc1 [Example 16, 2-[3-methoxy-4-(1H-pyrazol-4-yl)phenyl]-8-(5-methoxypyridine-2-carbonyl)-2,8-diazaspiro[4.5]decan-1-one] |
| 1690 | COc1cc(N2CCC3(CCN(C(=O)c4ccco4)CC3)C2=O)ccc1-c1cn[nH]c1 [Example 63, 8-(furan-2-carbonyl)-2-[3-methoxy-4-(1H-pyrazol-4-yl)phenyl]-2,8-diazaspiro[4.5]decan-1-one] |
| 2.2 | COc1cc(N2CCC3(CCN(C(=O)c4ccc(N5CCN(Cc6ccc(Cl)cc6)CC5)cc4)CC3)C2=O)ccc1-c1cn[nH]c1 [Example 227, 8-(4-{4-[(4-chlorophenyl)methyl]piperazin-1-yl}benzoyl)-2-[3-methoxy-4-(1H-pyrazol-4-yl)phenyl]-2,8-diazaspiro[4.5]decan-1-one] |
| 0.2 | COc1cc(N2CCC3(CCN(C(=O)c4ccc(N5CCN(Cc6cccc(NS(C)(=O)=O)c6)CC5)cc4)CC3)C2=O)ccc1-c1cn[nH]c1 [Example 235, N-(3-{[4-(4-{2-[3-methoxy-4-(1H-pyrazol-4-yl)phenyl]-1-oxo-2,8-diazaspiro[4.5]decane-8-carbonyl}phenyl)piperazin-1-yl]methyl}phenyl)methanesulfonamide] |
| 16.5 | COc1cc(N2CCC3(CCN(C(=O)c4ccc(-c5cc[nH]n5)cc4)CC3)C2=O)ccc1-c1cn[nH]c1 [Example 53, 2-[3-methoxy-4-(1H-pyrazol-4-yl)phenyl]-8-[4-(1H-pyrazol-3-yl)benzoyl]-2,8-diazaspiro[4.5]decan-1-one] |
